Laboratory results taken from patent publication US6264994A, “Compositions for treating alzheimer's disease and other amyloidoses” (priority 1998, dated 2001).
Where a name gives a salt, the structure may show the parent alone.

What was measured:
[1] = tested on: Alzheimer's disease patients; settings: literature; cited from earlier work
[2] = biological target: T1, Alzheimer's Aβ (1-40) (Homo sapiens, UniProt P05067); assay: Thioflavin T fluorometry assay of Aβ (1-40) amyloid fibril formation over 1 week; format: biochemical; settings: 1 hour to 1 week, 25 μM Aβ (1-40)
T1 construct: aggregates to fibrils, Thioflavin T fluorometry
T1 sequence (P05067 672-711): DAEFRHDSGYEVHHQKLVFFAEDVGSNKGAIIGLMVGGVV
Text: A previously described method of measuring amyloid fibril formation utilizing Thioflavin T fluorometry (H Naiki et al, Lab. Invest. 65:104-110, 1991; H Levine III, Protein Sci. 2:404-410, 1993; H Levine III, Amyloid: Int. J. Exp. Clin. Invest. 2:1-6, 1995; H Naiki and K. Nakakuki, Lab. Invest. 74:374-383,1996) was employed initially to identify potential therapeutic compounds capable of inhibiting Alzheimer's Aβ amyloid fibril formation. Using this sensitive assay, any decreases or increases in fluorescence was previously shown to correlate with a decrease or increase in the amount of amyloid fibrils (H Naiki et al, Lab. Invest. 65:104-110, 1991; H Levine III, Protein Sci. 2:404-410, 1993; H Levine III, Amyloid: Int. J. Exp. Clin. Invest. 2:1-6, 1995; H Naiki and K. Nakakuki, Lab. Invest. 74:374-383, 1996), allowing one to determine the identification and extent of potential inhibitors and/or enhancers of amyloid fibril formation.
In one study, the effects of various compounds on Alzheimer's Aβ (1-40) fibril formation was assessed by Thioflavin T fluorometry. Thioflavin T is known to bind to fibrillar amyloid proteins, and an increase in fluorescence correlates with an increase in amyloid fibril formation, whereas a decrease in fluorescence correlates with a decrease in amyloid fibril formation. The Alzheimer's Aβ protein (1-40) when incubated at 37° C. tends to spontaneously form amyloid fibrils which increase in quantity over time. […]
To assess the effects of each compound on Aβ (1-40) fibril formation, 50 μl aliquots were taken from each tube for analysis at 1 hr, 1 day, 3 days, and 1 week. […] Fluorescence emission at 482 nm was measured on a Turner instrument-model 450 fluorometer at an excitation wavelength of 450 nm. For each determination,the fluorometer was calibrated by zeroing in the presence of the Thioflavin T reagent alone, and by setting the 50 ng/ml riboflavin (Sigma Chemical Co., St. Louis, Mo.) in the Thioflavin T reagent to 1800 fluorescence units. […]

[3] = tested on: Aβ (1-40); assay: Solid phase binding assay of Aβ--Aβ interactions (amyloid fibril growth); settings: FIG. 3; 1.25 mM of test compounds
Text: In Alzheimer's disease and other amyloidoses, amyloid fibril growth is believed to involve amyloid protein self-interactions (ie. Aβ--Aβ interactions). Any potential effective therapeutic agent for amyloid deposition, accumulation and/or persistence should also be capable of causing an inhibition of amyloid protein self-interactions. This is important for preventing any new amyloid fibril formation when treating Azheimer's disease patients at early stages of the disease. ELISA methodologies (i.e. solid phase binding assays) were therefore used to identify compounds which were capable of inhibiting Aβ--Aβ interactions (i.e. Alzheimer's amyloid fibril growth).
Aβ (1-40) was first labelled with biotin according to the following protocol. 1 mg of Aβ (1-40) (Bachem Inc., Torrance, Calif., USA; Lot #WL934) was dissolved in 200 μl of PBS (pH 8.0) and incubated for 1 week at 37° C. […] The amount of biotin incorporated was then determined using the HABA (2-(4'-hydroxyazo-benzene)benzoic acid) method (according to the manufacturer's protocol; Pierce).
2 μg of unlabelled Aβ in 40 μl of Tris-buffered saline containing 100 mM Tris-HCl, 50 mM NaCl, 3 mM NaN3, pH 7.0 (TBS) was allowed to bind overnight at 4° C. to microtiter wells (Nunc plates, Maxisorb). […] The reaction was stopped with 50 μl of 4N H2 SO4 and read on a Model 450 microplate reader (Biorad, Hercules, Calif., USA) at 490 nm. […]

[4] = Example 1, FIG. 1, 1.25 mM test compound (PTI-00700 at 1:227 dilution)

## Nc1c2c(nc3ccccc13)CCCC2 [Tacrine hydrochloride]
[1]
  cognitive improvement in Alzheimer's disease patients: limited success
  side effects: liver toxicity

## N[C@H]1C(O)O[C@H](CO)[C@@H](O)[C@@H]1O (some centres unmarked) [PTI-00900, glucosamine]
[2]; [4]
  effect on Aβ (1-40) amyloid fibril formation: did not significantly inhibit
[3]
  effect on amyloid fibril growth / Aβ--Aβ interactions: no inhibitory effects

## COc1cc2c(cc1OC)C(=O)C(CC1CCN(Cc3ccccc3)CC1)C2 (centres unmarked) [donepezil]
[1]
  cognitive improvement in Alzheimer's disease patients: slight cognitive improvement

## N[C@H]1C(O)O[C@H](CO)[C@@H](O)[C@@H]1O (some centres unmarked) [PTI-00800, glucosamine]
[2]; [4]
  effect on Aβ (1-40) amyloid fibril formation: did not significantly inhibit
[3]
  effect on amyloid fibril growth / Aβ--Aβ interactions: no inhibitory effects

## N[C@H]1C(O)O[C@H](CO)[C@@H](O)[C@@H]1O (some centres unmarked) [PTI-00712, glucosamine]
[2]; Example 2, FIG. 2, 1.25 mM test compound
  effect on Aβ (1-40) amyloid fibril formation: no inhibitory effect
